Assay results as given in PubChem BioAssay (NCI).
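All cell lines were grown in 96-well plates and treated with compound for 48 hours. GI50 is the concentration that inhibits growth by half. Definition used: TGI = concentration required for complete inhibition of growth.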 Starred links: 1 amine or outer side, 2 acyl side, 3 side chain; linkers in the order of their positions; H or OH if unused. Positions of bridges follow the written chain, without caps; N, C: chain ends. Non-standard residues stand in square brackets, D forms with d. Residues, ends and D or L forms follow the SMILES beside them. Chains are numbered I, II in the order given. Actinocin(1to9) = Cc1c2oc3c(C)ccc(C(=O)[*:2])c3nc-2c(C(=O)[*:1])c(N)c1=O; NMeV = CN[CH](C(=O)O)C(C)C; Sar = CNCC(=O)O

How the values were obtained:
Experiment in all cases: NCI anticancer screen, dose series, 48 h
[1] = test system: OVCAR-8 ovarian
[2] = test system: SK-MEL-5 melanoma
[3] = test system: NCI-H23 lung
[4] = test system: HCT-116 colon
[5] = test system: HCT-15 colon
[6] = test system: SR leukemia
[7] = test system: HL-60(TB) leukemia
[8] = test system: ACHN renal
[9] = test system: NCI-H460 lung
[10] = test system: HOP-62 NSCLC
[11] = test system: IGROV1 ovarian

SMILES | TGI [1] | TGI [2] | TGI [3] | TGI [4] | TGI [5] | TGI [6] | TGI [7] | TGI [8] | TGI [9] | TGI [10] | TGI [11] | GI50 [5]
Nc1c(C(=O)O)nnc2cc(Cl)c(Cl)cc12 | > 100 µM | > 100 µM | > 100 µM | > 100 µM | > 100 µM | > 100 µM | > 100 µM | > 100 µM | > 100 µM | > 100 µM | > 100 µM | –
COc1ccc(C2NC(=S)Nc3c2c(=O)oc2c3ccc3ccccc32)cc1 (configuration not stated) | > 100 µM | > 100 µM | > 100 µM | > 100 µM | > 100 µM | > 100 µM | > 100 µM | > 100 µM | > 100 µM | > 100 µM | > 100 µM | –
Cc1cc(C)n(CC(Cn2nc(C)cc2C)=C(/C(Cl)=C(/Cl)Nc2ccc([N+](=O)[O-])cc2)[N+](=O)[O-])n1 | 14.6 µM | 4.97 µM | 8.03 µM | 14.3 µM | > 31.5 µM | 8.49 µM | 4.3 µM | 11.6 µM | 10.9 µM | 22.2 µM | 8.17 µM | –
COc1nc2[nH]ccc2c(=O)[nH]1 | > 100 µM | > 100 µM | > 100 µM | > 100 µM | – | > 100 µM | > 100 µM | > 100 µM | > 100 µM | – | > 100 µM | –
Cn1cnc([N+](=O)[O-])c1Sc1nc(N)nc2c1ncn2C1OC(CO)C(O)C1O (configuration not stated) | > 100 µM | 25.7 µM | 41.4 µM | > 52.2 µM | > 100 µM | > 35.6 µM | 28.4 µM | > 100 µM | 28.1 µM | > 100 µM | > 82.1 µM | –
CCC(C)C1NC(=O)C(NC(=O)c2c3nc4c(C(=O)NC5C(=O)NC(C(C)CC)C(=O)N6CCCC6C(=O)N(C)CC(=O)N(C)C(C(C)C)C(=O)OC5C)ccc(C)c4oc-3c(C)c(=O)c2N)C(C)OC(=O)C(C(C)C)N(C)C(=O)CN(C)C(=O)C2CCCN2C1=O (configuration not stated) (I: TIP[Sar][NMeV] / II: TIP[Sar][NMeV]; ester I:1-I:C, II:1-II:C; linker I:N-II:N via Actinocin(1to9); configuration not given here) | 0.125 µM | 0.018 µM | 0.0168 µM | – | 10.3 µM | 0.00257 µM | 0.0186 µM | – | – | – | – | 0.0109 µM
CC(C)(C)OC(=O)n1c2ccccc2c2c(=O)nc(N3CCCCC3)sc21 | > 100 µM | > 100 µM | > 100 µM | – | > 100 µM | > 100 µM | > 100 µM | > 100 µM | > 100 µM | > 100 µM | > 100 µM | –
O=C(CSc1nc2ccc([N+](=O)[O-])cc2s1)c1ccc2ccccc2c1 | > 100 µM | > 100 µM | > 100 µM | > 100 µM | > 100 µM | – | > 100 µM | > 100 µM | > 100 µM | > 100 µM | > 100 µM | –
CN(C)c1ccc(C=Nc2ccc(Oc3ccc(Cl)cc3)c(Cl)c2)cc1 | 36.8 µM | 33.4 µM | 39.9 µM | 34.5 µM | 41.7 µM | 32.9 µM | 40.1 µM | 79.6 µM | 42.1 µM | 51.8 µM | 85.1 µM | –
Nc1ncnc2c1sc1nc3ccccc3n12 | > 100 µM | > 100 µM | > 100 µM | – | > 100 µM | – | – | > 100 µM | > 100 µM | > 100 µM | > 100 µM | –
Cc1ccccc1N=Nc1c(O)c(S(=O)(=O)O)cc2cc(S(=O)(=O)O)ccc12 | > 100 µM | > 100 µM | > 100 µM | > 100 µM | > 100 µM | > 100 µM | > 100 µM | > 100 µM | > 100 µM | > 100 µM | > 100 µM | –
COc1cc2oc(=O)ccc2cc1C(=O)CC(C)C | > 100 µM | > 100 µM | > 100 µM | > 100 µM | > 100 µM | > 100 µM | > 100 µM | > 100 µM | > 100 µM | > 100 µM | > 100 µM | –
O=c1ccc2nc3cc(Br)ccc3sc-2c1 | – | > 100 µM | > 100 µM | > 100 µM | > 100 µM | > 100 µM | 37.5 µM | > 100 µM | > 100 µM | > 100 µM | > 100 µM | –
O=c1c2cc(I)ccc2nc(SCc2nncs2)n1Cc1ccccc1 | > 100 µM | 88.3 µM | > 100 µM | > 100 µM | > 100 µM | > 100 µM | > 100 µM | > 100 µM | > 100 µM | > 100 µM | 48.7 µM | –
C[N+]1(CCC(=O)c2ccco2)CC2CCC(CC2)C1 (configuration not stated) | > 100 µM | > 100 µM | > 100 µM | > 100 µM | > 100 µM | > 100 µM | – | > 100 µM | > 100 µM | – | > 100 µM | –
Cn1c(=O)[nH]c2nncnc2c1=O | > 62.5 µM | 177 µM | 420 µM | 219 µM | > 625 µM | – | 55.2 µM | – | 245 µM | 181 µM | 133 µM | –
O=c1[nH]c2nnc(COc3ccc(Cl)cc3Cl)n2nc1Cc1ccccc1 | 53.9 µM | > 100 µM | > 100 µM | > 100 µM | > 100 µM | > 100 µM | > 100 µM | > 100 µM | > 100 µM | > 100 µM | 76.6 µM | –
Cc1c(N2C(=O)/C(=C/c3ccc(Cl)cc3)N=C2c2ccccc2)c(=O)n(-c2ccccc2)n1C | > 100 µM | 34.3 µM | 78.2 µM | > 100 µM | 19.6 µM | 76.3 µM | 57 µM | 60.5 µM | > 100 µM | > 100 µM | 88.5 µM | –
